The source of these data is patent US4432906A, “Inhibitors of SRS-synthesis” (Hoffmann-La Roche Inc., priority 1981, dated 1984).

The IC50 is the point on the concentration scale where inhibition reaches its midpoint. The inhibition is the drop in the measured response relative to a control, in per cent.

This assay relates to SRS-A synthesis in rat peritoneal cells. Briefly: Inhibition of the in vitro synthesis of SRS-A in rat peritoneal cells (ionophore A23187 challenge; SRS-A quantitated by guinea pig ileum bioassay). In kind it is cell-based, rat (male Sprague-Dawley). Conditions: for IC50: concentration of test drug which inhibits the synthesis of SRS-A by 50%, from plot of mean percent inhibition versus drug concentration; for inhibition at 10 µM: inhibition of SRS-A synthesis, 10 μM test drug, 10 min preincubation at 37° C., challenge with 5×10^-7 M ionophore A23187, mean percent inhibition. From the text:
Inhibition of the In Vitro Synthesis of SRS-A in Rat Peritoneal Cells
To study the effect of drugs on SRS-A synthesis in rat peritoneal cells, these cells (including mast cells, monocytes, eosinophils and neutrophils)were isolated from male Sprague-Dawley rats (Charles River Laboratories) weighing 180-220 g by the lavage procedure described by Herzig, D. G. and Dusner, E. J. Journal of Pharmacology and Experimental Therapeutics, 194, 457-460 (1975) with the exception that Hanks balanced salt solution used in these experiments was adjusted to pH 6.9 with 5% (V/V) of 0.1 M aqueous phosphate buffer and contained 50 mg/ml sodium heparin. After removal from the peritoneal cavity of rats, the cells were subsequently isolated by centrifugation at 400×gravity for 10 minutes at 4° C. and resuspended to a concentration of about 2,000,000 cells per ml in Hanks buffer.
Samples for evaluation were prepared by adding various concentrations of test drugs to 2 ml aliquots of resuspended cells in Hanks buffer. The 2 ml samples used for control contained 2 ml aliquots of resuspended cells in Hanks buffer without drugs. All of the above samples (2 ml final volume) were preincubated at 37° C. for 10 minutes in the presence of varying concentrations of test drug prior to challenge with 5×10^-7 M ionophore A23187. This ionophore is disclosed in Burka and Flower, Br. J. Pharmacology 65: 35-41 (1979). Antibiotic A 23187 was used as a probe for the study of calcium and function in biological systems. After ionophore challenge, SRS-A was synthesized in the samples by the cells for 10 minutes (at 37° C.) after which this synthesis was terminated by placing the samples in a boiling water bath for 10 minutes followed by centrifugation at 2,000×g (10 minutes) at 4° C. to remove coagulated protein and cellular debris. The SRS-A present in the resulting supernatants was quantitated by a bioassay using a guinea pig ileum as described in Orange, and Austen, Adv. Immunol, 10:105-144 (1969). For this bioassay, a 1.5 cm segment of ileum was removed from animals weighing 300 to 400 g and resuspended in an organ bath containing 10 ml of Tyrodes solution with 10^-6 M atropine sulfate and 10^-6 M pyrilamine maleate. The bath was maintained at 37° C. and aerated with a mixture of 95% O2 and 5% CO2. The concentration of SRS-A in the experimental samples was determined by a comparison of isotonic contraction responses elicited by the samples with those obtained with varying amounts of an SRS-A standard procedures of Orange, R. R. and Austen, K. F. Adv. Immunol. 10:105-144 (1969) against histamine (1 unit of SRS-A being that amount which gives a contractile response similar to that of […]). […]
The mean percent inhibition [formula] at each concentration of the various test drugs was calculated. […]

For `CCCCCCCC/C=C\C(C)(C)/C=C\C/C=C\CCCC(=O)O` [(all Z)-10,10-dimethyl-5,8,11-eicosatrienoic acid], the IC50 is less than 10000 nM and testing at 10 µM gave an inhibition of 100%.

On to `CCCCC/C=C\C/C=C\C(C)(C)/C=C\C/C=C\CCCC(=O)O` [(all Z)-10,10-dimethyleicosa-5,8,11,14-tetraenoic acid], for which the half-maximal inhibitory concentration (IC50) was in the range of 1000 to 3000 nM and 10 µM produced 99 ± 1% inhibition.
